Data from ChEMBL document CHEMBL1131886 (Bioorg Med Chem Lett, 1999).

Assays:
[1] = biological target: T1, 5-hydroxytryptamine receptor 1A (Homo sapiens) (UniProt P08908); assay: Percent efficacy against human 5-hydroxytryptamine 1A receptor relative to maximal 5-HT response; type: functional
T1 sequence (whole entry): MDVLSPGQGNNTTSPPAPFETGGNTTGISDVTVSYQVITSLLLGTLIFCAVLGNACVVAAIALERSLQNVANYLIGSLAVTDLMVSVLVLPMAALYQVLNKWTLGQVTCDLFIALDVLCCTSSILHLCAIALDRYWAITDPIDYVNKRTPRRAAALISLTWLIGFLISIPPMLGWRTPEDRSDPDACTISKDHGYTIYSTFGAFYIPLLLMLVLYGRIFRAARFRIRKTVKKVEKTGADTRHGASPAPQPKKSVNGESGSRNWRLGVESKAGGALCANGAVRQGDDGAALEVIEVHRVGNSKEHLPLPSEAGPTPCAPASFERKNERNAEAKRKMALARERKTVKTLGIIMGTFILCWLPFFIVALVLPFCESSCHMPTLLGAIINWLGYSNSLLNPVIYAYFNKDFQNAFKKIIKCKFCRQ

[2] = biological target: T2, 5-hydroxytryptamine receptor 1A (Homo sapiens, UniProt P08908); assay: Stimulation of [35S]- GIPyS binding to cloned human 5-hydroxytryptamine 1A receptor stably expressed in HeLa cells; type: cell-based
T2 sequence (P08908 whole entry): T1 sequence (whole entry)

[3] = biological target: T2, 5-hydroxytryptamine receptor 1A; assay: Displacement of specific [3H]- 5-HT binding to cloned human 5-hydroxytryptamine 1A receptor stably expressed in HeLa cells; type: cell-based
[4] = biological target: Sodium-dependent serotonin transporter (Rattus norvegicus, UniProt P31652); assay: Displacement of specific [3H]- citalopram binding to 5-HT uptake site in rat whole cortex
Sodium-dependent serotonin transporter, sequence (P31652 whole entry): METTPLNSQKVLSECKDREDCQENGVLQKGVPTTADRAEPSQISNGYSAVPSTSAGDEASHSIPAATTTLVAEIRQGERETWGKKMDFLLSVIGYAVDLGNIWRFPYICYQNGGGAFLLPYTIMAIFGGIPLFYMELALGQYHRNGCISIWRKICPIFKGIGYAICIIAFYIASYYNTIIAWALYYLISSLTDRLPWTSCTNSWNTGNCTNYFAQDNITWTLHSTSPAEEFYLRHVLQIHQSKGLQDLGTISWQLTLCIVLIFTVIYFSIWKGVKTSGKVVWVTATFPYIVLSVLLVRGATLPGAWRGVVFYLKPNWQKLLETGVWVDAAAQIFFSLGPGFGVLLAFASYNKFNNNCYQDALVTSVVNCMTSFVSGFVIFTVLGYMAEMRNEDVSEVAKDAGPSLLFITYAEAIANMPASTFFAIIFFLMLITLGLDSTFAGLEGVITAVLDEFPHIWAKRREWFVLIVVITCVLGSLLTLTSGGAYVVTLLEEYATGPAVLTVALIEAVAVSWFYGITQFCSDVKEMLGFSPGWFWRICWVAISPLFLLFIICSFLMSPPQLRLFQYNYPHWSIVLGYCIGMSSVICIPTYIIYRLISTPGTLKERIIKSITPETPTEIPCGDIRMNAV

[5] = biological target: T2, 5-hydroxytryptamine receptor 1A; assay: Stimulation of [35S]- […] binding to cloned human 5-hydroxytryptamine 1A receptor stably expressed in HeLa cells; Inverse; type: cell-based
[6] = biological target: T1, 5-hydroxytryptamine receptor 1A (Homo sapiens); assay: Percent efficacy against cloned human 5-hydroxytryptamine 1A receptor normalized to the maximal 5-HT response; type: functional

Structure (SMILES) | Efficacy [1] [%] | EC50 [2] [nM] | Ki [3] [nM] | Ki [4] [nM] | EC50 [5] | Efficacy [6] [%]
CC(C)NCC(O)COc1cccc2[nH]ccc12 (stereo not drawn) | 36 |  |  |  |  | 
OC(COc1ccc(F)c2c1OCCC2)CN1CCC2(CC1)OCc1c2ccc2ccccc12 (stereo not drawn) |  | > 10000 | 2.8 | 49 |  | 
OC(COc1cc(F)cc2c1OCCC2)CN1CCC2(CC1)OCc1c2ccc2ccccc12 (stereo not drawn) |  |  | 5.5 | 72 | Inverse agonist | 
O[C@H](COc1ccccc1)CN1CCC2(CC1)OCc1c2ccc2ccccc12 | 81 | 1.2 | 1.1 | 50 |  | 
O[C@H](COc1ccccc1F)CN1CCC2(CC1)OCc1c2ccc2ccccc12 | 100 | 1.1 | 1 | 52 |  | 
CCc1cccc(OC[C@@H](O)CN2CCC3(CC2)OCc2c3ccc3ccccc23)c1 | 61 | 3.3 | 1.7 | 87 |  | 
OC(CCc1ccccc1)CN1CCC2(CC1)OCc1c2ccc2ccccc12 (stereo not drawn) | 87 | 37 | 8.3 | 10 |  | 
OC(COCc1ccccc1)CN1CCC2(CC1)OCc1c2ccc2ccccc12 (stereo not drawn) | 108 | 31 | 2.2 | 83 |  | 
O=C1CCc2c(F)ccc(OCC(O)CN3CCC4(CC3)OCc3c4ccc4ccccc34)c21 (stereo not drawn) |  | 3.5 | 2.3 | 45 |  | 65
c1ccc(CCCCN2CCC3(CC2)OCc2c3ccc3ccccc23)cc1 |  | > 10000 | 72 | 28 |  | 
O[C@@H](COc1ccccc1F)CN1CCC2(CC1)OCc1c2ccc2ccccc12 | 92 | 21 | 6 | 120 |  | 
